Source: patent publication US20220402925A1, “COMPOUNDS AND METHODS FOR THE TREATMENT OF CYSTIC FIBROSIS” (Flatley Discovery Lab, LLC, priority 2019, published 2022)

Target: T1, F508del CFTR (Homo sapiens, UniProt P13569, DEL508-508)
T1 construct: Primary CF airway epithelial cells were obtained from the UNC Cystic Fibrosis Tissue Procurement and Cell Culture Core; host or cells: primary CF airway epithelial cells
Assay: Equivalent current assay in primary CF airway epithelial cells (Corrector Activity, NAUC normalized to 3 μM VX809)
Format: cell-based
Details: NAUC as % of positive control (VX-809)
Outline: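 Differentiated primary CF airway cells treated basolaterally 24 h at 37° C with compound (0.1% DMSO). Equivalent current recorded after 5 μM benzamil, stimulation with 10 μM forskolin plus 1 μM VX-770 or 3 μM FDL176, and block by 20 μM CFTR-172; vehicle-subtracted AUC normalized to 3 μM VX809; EC50 from sigmoid fit, Hill slope 1.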

T1 sequence (P13569 with tags, fused parts or gaps DEL508-508): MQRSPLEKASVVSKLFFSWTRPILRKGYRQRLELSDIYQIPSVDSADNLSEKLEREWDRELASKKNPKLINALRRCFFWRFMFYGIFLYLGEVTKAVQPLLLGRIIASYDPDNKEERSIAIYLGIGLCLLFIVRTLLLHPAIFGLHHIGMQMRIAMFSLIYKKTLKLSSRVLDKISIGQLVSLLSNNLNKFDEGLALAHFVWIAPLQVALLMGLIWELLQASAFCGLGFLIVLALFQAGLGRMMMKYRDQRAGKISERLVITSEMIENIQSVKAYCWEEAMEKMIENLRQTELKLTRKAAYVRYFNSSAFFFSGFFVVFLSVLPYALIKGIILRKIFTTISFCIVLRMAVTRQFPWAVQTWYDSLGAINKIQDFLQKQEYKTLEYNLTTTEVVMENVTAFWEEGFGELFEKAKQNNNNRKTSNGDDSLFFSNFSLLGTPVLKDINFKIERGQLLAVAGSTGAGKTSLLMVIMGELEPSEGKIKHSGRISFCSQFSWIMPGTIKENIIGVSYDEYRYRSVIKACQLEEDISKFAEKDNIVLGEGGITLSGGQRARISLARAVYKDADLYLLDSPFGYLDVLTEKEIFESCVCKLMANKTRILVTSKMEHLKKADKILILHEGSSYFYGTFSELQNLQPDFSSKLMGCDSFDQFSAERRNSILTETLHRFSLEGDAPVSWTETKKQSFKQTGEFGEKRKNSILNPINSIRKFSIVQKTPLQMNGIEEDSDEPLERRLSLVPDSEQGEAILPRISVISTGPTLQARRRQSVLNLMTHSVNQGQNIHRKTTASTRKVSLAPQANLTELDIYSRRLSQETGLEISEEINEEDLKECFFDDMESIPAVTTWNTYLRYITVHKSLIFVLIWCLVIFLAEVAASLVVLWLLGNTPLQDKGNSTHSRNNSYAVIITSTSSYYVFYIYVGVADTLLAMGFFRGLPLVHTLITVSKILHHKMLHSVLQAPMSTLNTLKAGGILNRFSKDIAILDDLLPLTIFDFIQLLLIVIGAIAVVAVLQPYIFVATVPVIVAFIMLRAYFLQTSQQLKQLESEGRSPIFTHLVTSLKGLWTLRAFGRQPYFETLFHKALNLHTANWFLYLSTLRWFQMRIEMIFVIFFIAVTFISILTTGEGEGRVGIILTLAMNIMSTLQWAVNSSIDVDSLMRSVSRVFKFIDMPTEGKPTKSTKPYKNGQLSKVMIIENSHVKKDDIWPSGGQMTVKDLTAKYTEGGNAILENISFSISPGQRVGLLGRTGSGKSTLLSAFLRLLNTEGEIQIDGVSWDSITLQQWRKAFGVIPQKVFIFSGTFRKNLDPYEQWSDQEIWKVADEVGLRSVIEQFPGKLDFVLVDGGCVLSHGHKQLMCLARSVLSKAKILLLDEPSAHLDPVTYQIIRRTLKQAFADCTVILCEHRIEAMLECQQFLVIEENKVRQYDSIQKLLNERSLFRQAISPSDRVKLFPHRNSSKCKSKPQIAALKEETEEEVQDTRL

SMILES: CCN(C(=O)Cn1nc(-c2cc(C)cc(OC)c2)c2[nH]cnc2c1=O)c1ccc2c(c1)OC(F)(F)O2 [Example 272]
- Corr Activity (NAUC): + (NAUC<40% of positive control)

SMILES: CCN(C(=O)Cn1nc(-c2cc(Cl)cc(OCc3ccccc3)c2)c2[nH]cnc2c1=O)c1ccc2c(c1)OC(F)(F)O2 [Example 273]
- Corr Activity (NAUC): +++ (NAUC>70% of positive control)

SMILES: CCN(C(=O)Cn1nc(-c2cc(OC)cc(OC(F)(F)F)c2)c2[nH]cnc2c1=O)c1ccc2c(c1)OC(F)(F)O2 [Example 274]
- Corr Activity (NAUC): + (NAUC<40% of positive control)

SMILES: CCN(C(=O)Cn1nc(-c2cc(Cl)cc(OCCOC)c2)c2[nH]cnc2c1=O)c1ccc2c(c1)OC(F)(F)O2 [Example 276]
- Corr Activity (NAUC): +++ (NAUC>70% of positive control)

SMILES: CCN(C(=O)Cn1nc(-c2cc(Cl)cc(N3CCCC3)c2)c2[nH]cnc2c1=O)c1ccc2c(c1)OC(F)(F)O2 [Example 277]
- Corr Activity (NAUC): +++ (NAUC>70% of positive control)

SMILES: CCN(C(=O)Cn1nc(-c2cc(Cl)cc(C(F)(F)F)c2)c2[nH]cnc2c1=O)c1ccc2c(c1)OC(F)(F)O2 [Example 278]
- Corr Activity (NAUC): +++ (NAUC>70% of positive control)

SMILES: CCN(C(=O)Cn1nc(-c2cc(C)cc(C(F)(F)F)c2)c2[nH]cnc2c1=O)c1ccc2c(c1)OC(F)(F)O2 [Example 279]
- Corr Activity (NAUC): ++ (NAUC 70-40% of positive control)

SMILES: CCN(C(=O)Cn1nc(-c2cc(C(C)(C)C)cc(C(C)(C)C)c2)c2[nH]cnc2c1=O)c1ccc2c(c1)OC(F)(F)O2 [Example 280]
- Corr Activity (NAUC): + (NAUC<40% of positive control)

SMILES: CCN(C(=O)Cn1nc(-c2cc(C#N)cc(C(F)(F)F)c2)c2[nH]cnc2c1=O)c1ccc2c(c1)OC(F)(F)O2 [Example 281]
- Corr Activity (NAUC): +++ (NAUC>70% of positive control)

SMILES: CCN(C(=O)Cn1nc(-c2cc(Cl)cc(CO)c2)c2[nH]cnc2c1=O)c1ccc2c(c1)OC(F)(F)O2 [Example 282]
- Corr Activity (NAUC): + (NAUC<40% of positive control)

SMILES: CCN(C(=O)Cn1nc(-c2cc(O)cc(OC(F)(F)F)c2)c2[nH]cnc2c1=O)c1ccc2c(c1)OC(F)(F)O2 [Example 284]
- Corr Activity (NAUC): + (NAUC<40% of positive control)

SMILES: CCN(C(=O)Cn1nc(-c2cc(C#N)cc(OC(F)(F)F)c2)c2[nH]cnc2c1=O)c1ccc2c(c1)OC(F)(F)O2 [Example 285]
- Corr Activity (NAUC): +++ (NAUC>70% of positive control)

SMILES: CCN(C(=O)Cn1nc(-c2cc(C#N)cc(OC)c2)c2[nH]cnc2c1=O)c1ccc2c(c1)OC(F)(F)O2 [Example 286]
- Corr Activity (NAUC): +++ (NAUC>70% of positive control)

SMILES: CCN(C(=O)Cn1nc(-c2ccc3cc(OC)ccc3c2)c2[nH]cnc2c1=O)c1ccc2c(c1)OC(F)(F)O2 [Example 289]
- Corr Activity (NAUC): +++ (NAUC>70% of positive control)

SMILES: CCN(C(=O)Cn1nc(-c2ccc3c(ccn3C)c2)c2[nH]cnc2c1=O)c1ccc2c(c1)OC(F)(F)O2 [Example 290]
- Corr Activity (NAUC): + (NAUC<40% of positive control)

SMILES: CCN(C(=O)Cn1nc(-c2ccc3ccccc3c2)c2[nH]cnc2c1=O)c1ccc2c(c1)OC(F)(F)O2 [Example 292]
- Corr Activity (NAUC): + (NAUC<40% of positive control)

SMILES: CCN(C(=O)Cn1nc(-c2ccc3c(c2)C(C)(C)c2ccccc2-3)c2[nH]cnc2c1=O)c1ccc2c(c1)OC(F)(F)O2 [Example 293]
- Corr Activity (NAUC): + (NAUC<40% of positive control)

SMILES: CCN(C(=O)Cn1nc(-c2ccc3c(c2)OCCO3)c2[nH]cnc2c1=O)c1ccc2c(c1)OC(F)(F)O2 [Example 294]
- Corr Activity (NAUC): + (NAUC<40% of positive control)

SMILES: CCN(C(=O)Cn1nc(-c2ccc3[nH]c4ccccc4c3c2)c2[nH]cnc2c1=O)c1ccc2c(c1)OC(F)(F)O2 [Example 295]
- Corr Activity (NAUC): + (NAUC<40% of positive control)

SMILES: CCN(C(=O)Cn1nc(-c2ccc3c(ccn3Cc3ccccc3)c2)c2[nH]cnc2c1=O)c1ccc2c(c1)OC(F)(F)O2 [Example 296]
- Corr Activity (NAUC): + (NAUC<40% of positive control)

SMILES: CCN(C(=O)Cn1nc(-c2ccc3ocnc3c2)c2[nH]cnc2c1=O)c1ccc2c(c1)OC(F)(F)O2 [Example 303]
- Corr Activity (NAUC): + (NAUC<40% of positive control)

SMILES: CCN(C(=O)Cn1nc(-c2ccc3c(cnn3C(C)C)c2)c2[nH]cnc2c1=O)c1ccc2c(c1)OC(F)(F)O2 [Example 310]
- Corr Activity (NAUC): + (NAUC<40% of positive control)

SMILES: CCN(C(=O)Cn1nc(-c2ccc3c(c2)OC(F)(F)O3)c2[nH]cnc2c1=O)c1ccc2c(c1)OC(F)(F)O2 [Example 311]
- Corr Activity (NAUC): + (NAUC<40% of positive control)

SMILES: CCN(C(=O)Cn1nc(-c2ccc3c(c2)ncn3-c2ccccc2)c2[nH]cnc2c1=O)c1ccc2c(c1)OC(F)(F)O2 [Example 313]
- Corr Activity (NAUC): ++ (NAUC 70-40% of positive control)

SMILES: CCN(C(=O)Cn1nc(-c2ccc(C(=O)OC)c(Cl)c2)c2[nH]cnc2c1=O)c1ccc2c(c1)OC(F)(F)O2 [Example 316]
- Corr Activity (NAUC): ++ (NAUC 70-40% of positive control)

SMILES: CCN(C(=O)Cn1nc(-c2ccc(CC#N)c(F)c2)c2[nH]cnc2c1=O)c1ccc2c(c1)OC(F)(F)O2 [Example 317]
- Corr Activity (NAUC): + (NAUC<40% of positive control)

SMILES: CCN(C(=O)Cn1nc(-c2ccc(-c3ccccc3)c(F)c2)c2[nH]cnc2c1=O)c1ccc2c(c1)OC(F)(F)O2 [Example 319]
- Corr Activity (NAUC): + (NAUC<40% of positive control)

SMILES: CCN(C(=O)Cn1nc(-c2ccc(Cl)c(Cl)c2)c2[nH]cnc2c1=O)c1ccc2c(c1)OC(F)(F)O2 [Example 322]
- Corr Activity (NAUC): +++ (NAUC>70% of positive control)

SMILES: CCN(C(=O)Cn1nc(-c2ccc(Cl)c(C#N)c2)c2[nH]cnc2c1=O)c1ccc2c(c1)OC(F)(F)O2 [Example 325]
- Corr Activity (NAUC): +++ (NAUC>70% of positive control)

SMILES: CCN(C(=O)Cn1nc(-c2ccc(OC(C)C)c(Cl)c2)c2[nH]cnc2c1=O)c1ccc2c(c1)OC(F)(F)O2 [Example 326]
- Corr Activity (NAUC): +++ (NAUC>70% of positive control)

SMILES: CCN(C(=O)Cn1nc(-c2ccc(O)c(Cl)c2)c2[nH]cnc2c1=O)c1ccc2c(c1)OC(F)(F)O2 [Example 327]
- Corr Activity (NAUC): + (NAUC<40% of positive control)

SMILES: CCN(C(=O)Cn1nc(-c2ccc(C(F)(F)F)c(Cl)c2)c2[nH]cnc2c1=O)c1ccc2c(c1)OC(F)(F)O2 [Example 328]
- Corr Activity (NAUC): + (NAUC<40% of positive control)

SMILES: CCN(C(=O)Cn1nc(-c2ccc(Cl)c(OC)c2)c2[nH]cnc2c1=O)c1ccc2c(c1)OC(F)(F)O2 [Example 329]
- Corr Activity (NAUC): + (NAUC<40% of positive control)

SMILES: CCN(C(=O)Cn1nc(-c2ccc(C(=O)NCc3ccccc3)c(Cl)c2)c2[nH]cnc2c1=O)c1ccc2c(c1)OC(F)(F)O2 [Example 330]
- Corr Activity (NAUC): + (NAUC<40% of positive control)

SMILES: CCN(C(=O)Cn1nc(-c2ccc(C#N)c(Cl)c2)c2[nH]cnc2c1=O)c1ccc2c(c1)OC(F)(F)O2 [Example 336]
- Corr Activity (NAUC): ++ (NAUC 70-40% of positive control)

SMILES: CCN(C(=O)Cn1nc(-c2ccc(C)c(CO)c2)c2[nH]cnc2c1=O)c1ccc2c(c1)OC(F)(F)O2 [Example 337]
- Corr Activity (NAUC): + (NAUC<40% of positive control)

SMILES: CCN(C(=O)Cn1nc(-c2ccc(OC)c(C(F)(F)F)c2)c2[nH]cnc2c1=O)c1ccc2c(c1)OC(F)(F)O2 [Example 338]
- Corr Activity (NAUC): ++ (NAUC 70-40% of positive control)

SMILES: CCN(C(=O)Cn1nc(-c2ccc(OCC(F)(F)F)c(F)c2)c2[nH]cnc2c1=O)c1ccc2c(c1)OC(F)(F)O2 [Example 339]
- Corr Activity (NAUC): ++ (NAUC 70-40% of positive control)

SMILES: CCN(C(=O)Cn1nc(-c2ccc(C(F)(F)F)c(C(F)(F)F)c2)c2[nH]cnc2c1=O)c1ccc2c(c1)OC(F)(F)O2 [Example 345]
- Corr Activity (NAUC): + (NAUC<40% of positive control)

SMILES: CCN(C(=O)Cn1nc(-c2ccc(OC)c(C#N)c2)c2[nH]cnc2c1=O)c1ccc2c(c1)OC(F)(F)O2 [Example 346]
- Corr Activity (NAUC): +++ (NAUC>70% of positive control)

SMILES: CCN(C(=O)Cn1nc(-c2ccc(OCC3CC3)c(Cl)c2)c2[nH]cnc2c1=O)c1ccc2c(c1)OC(F)(F)O2 [Example 347]
- Corr Activity (NAUC): +++ (NAUC>70% of positive control)

SMILES: CCN(C(=O)Cn1nc(-c2ccc(OC)c(S(=O)(=O)N3CCCC3)c2)c2[nH]cnc2c1=O)c1ccc2c(c1)OC(F)(F)O2 [Example 350]
- Corr Activity (NAUC): + (NAUC<40% of positive control)

SMILES: CCN(C(=O)Cn1nc(-c2ccc(C#N)c(C(F)(F)F)c2)c2[nH]cnc2c1=O)c1ccc2c(c1)OC(F)(F)O2 [Example 351]
- Corr Activity (NAUC): + (NAUC<40% of positive control)

SMILES: CCN(C(=O)Cn1nc(-c2ccc(N3CCCC3)c(C#N)c2)c2[nH]cnc2c1=O)c1ccc2c(c1)OC(F)(F)O2 [Example 352]
- Corr Activity (NAUC): +++ (NAUC>70% of positive control)

SMILES: CCN(C(=O)Cn1nc(-c2ccc(S(=O)(=O)NC(C)(C)C)c(C)c2)c2[nH]cnc2c1=O)c1ccc2c(c1)OC(F)(F)O2 [Example 355]
- Corr Activity (NAUC): + (NAUC<40% of positive control)

SMILES: CCN(C(=O)Cn1nc(-c2ccc(CC#N)c(OC)c2)c2[nH]cnc2c1=O)c1ccc2c(c1)OC(F)(F)O2 [Example 357]
- Corr Activity (NAUC): + (NAUC<40% of positive control)

SMILES: CCN(C(=O)Cn1nc(-c2ccc(CS(C)(=O)=O)c(Cl)c2)c2[nH]cnc2c1=O)c1ccc2c(c1)OC(F)(F)O2 [Example 363]
- Corr Activity (NAUC): + (NAUC<40% of positive control)

SMILES: CCN(C(=O)Cn1nc(-c2ccc(OC(F)(F)F)c(C#N)c2)c2[nH]cnc2c1=O)c1ccc2c(c1)OC(F)(F)O2 [Example 365]
- Corr Activity (NAUC): +++ (NAUC>70% of positive control)

SMILES: N#Cc1cc(F)cc(-c2nn(CC(=O)N(c3ccc4c(c3)OC(F)(F)O4)C3CC3)c(=O)c3nc[nH]c23)c1 [Example 368]
- Corr Activity (NAUC): +++ (NAUC>70% of positive control)

SMILES: N#Cc1cc(Cl)cc(-c2nn(CC(=O)N(c3ccc4c(c3)OC(F)(F)O4)C3CC3)c(=O)c3nc[nH]c23)c1 [Example 369]
- Corr Activity (NAUC): +++ (NAUC>70% of positive control)

SMILES: O=C(Cn1nc(-c2cccc(F)c2)c2[nH]cnc2c1=O)N(c1ccc2c(c1)OC(F)(F)O2)C1CC1 [Example 370]
- Corr Activity (NAUC): + (NAUC<40% of positive control)

SMILES: O=C(Cn1nc(-c2cccc(Cl)c2)c2[nH]cnc2c1=O)N(c1ccc2c(c1)OC(F)(F)O2)C1CC1 [Example 371]
- Corr Activity (NAUC): ++ (NAUC 70-40% of positive control)
